In ChEMBL document CHEMBL2203078, “Identification of amides as carboxylic Acid surrogates for quinolizidinone-based m1 positive allosteric modulators” (ACS Med Chem Lett, 2012):
The source made the active and inactive calls. No cut-off for these calls is given here.

Columns and labels:
[1] = target: T1, Muscarinic acetylcholine receptor M1 (Homo sapiens) (UniProt P11229); assay: Positive allosteric modulation of human muscarinic M1 receptor expressing in CHONFAT cells assessed as potentiation of acetylcholine-induced calcium mobilization preincubated for 4 mins and measured 4 mins after acetylcholine stimulation by FLIPR assay; type: functional, cell-based
T1 sequence (whole entry): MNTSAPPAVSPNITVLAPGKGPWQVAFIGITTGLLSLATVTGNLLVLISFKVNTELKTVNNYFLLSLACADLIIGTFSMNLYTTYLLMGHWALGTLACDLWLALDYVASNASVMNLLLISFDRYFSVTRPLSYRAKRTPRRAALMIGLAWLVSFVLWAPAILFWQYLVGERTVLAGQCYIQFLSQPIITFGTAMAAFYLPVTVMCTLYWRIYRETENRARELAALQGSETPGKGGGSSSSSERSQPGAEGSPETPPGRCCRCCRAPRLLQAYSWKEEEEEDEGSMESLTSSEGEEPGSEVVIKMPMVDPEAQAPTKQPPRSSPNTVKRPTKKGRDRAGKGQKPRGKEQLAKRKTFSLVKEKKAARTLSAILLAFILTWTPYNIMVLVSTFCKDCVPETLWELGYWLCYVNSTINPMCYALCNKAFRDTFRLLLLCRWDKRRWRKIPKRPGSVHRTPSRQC

[2] = target: T2, Muscarinic acetylcholine receptor M4 (Homo sapiens) (UniProt P08173); assay: Activity at muscarinic M4 receptor expressing in CHONFAT cells assessed as potentiation of acetylcholine-induced calcium mobilization preincubated for 4 mins and measured 4 mins after acetylcholine stimulation by FLIPR assay; type: functional, cell-based
T2 sequence (whole entry): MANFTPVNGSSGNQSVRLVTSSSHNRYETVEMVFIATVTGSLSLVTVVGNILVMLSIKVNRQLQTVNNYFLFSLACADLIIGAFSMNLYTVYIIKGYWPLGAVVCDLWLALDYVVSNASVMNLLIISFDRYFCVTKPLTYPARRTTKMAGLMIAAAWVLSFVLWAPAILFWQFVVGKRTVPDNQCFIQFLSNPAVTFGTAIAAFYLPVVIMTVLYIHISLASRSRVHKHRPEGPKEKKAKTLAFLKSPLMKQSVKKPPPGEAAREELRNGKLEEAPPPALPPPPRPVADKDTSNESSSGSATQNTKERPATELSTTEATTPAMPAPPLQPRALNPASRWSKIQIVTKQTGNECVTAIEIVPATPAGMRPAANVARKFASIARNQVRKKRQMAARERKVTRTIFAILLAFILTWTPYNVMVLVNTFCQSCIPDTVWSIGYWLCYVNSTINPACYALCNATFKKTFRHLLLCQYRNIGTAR

[3] = target: Muscarinic acetylcholine receptor M3 (Homo sapiens) (UniProt P20309); assay: Activity at muscarinic M3 receptor expressing in CHONFAT cells assessed as potentiation of acetylcholine-induced calcium mobilization preincubated for 4 mins and measured 4 mins after acetylcholine stimulation by FLIPR assay; type: functional, cell-based
[4] = target: T3, Muscarinic acetylcholine receptor M2 (Homo sapiens) (UniProt P08172); assay: Activity at muscarinic M2 receptor expressing in CHONFAT cells assessed as potentiation of acetylcholine-induced calcium mobilization preincubated for 4 mins and measured 4 mins after acetylcholine stimulation by FLIPR assay; type: functional, cell-based
T3 sequence (whole entry): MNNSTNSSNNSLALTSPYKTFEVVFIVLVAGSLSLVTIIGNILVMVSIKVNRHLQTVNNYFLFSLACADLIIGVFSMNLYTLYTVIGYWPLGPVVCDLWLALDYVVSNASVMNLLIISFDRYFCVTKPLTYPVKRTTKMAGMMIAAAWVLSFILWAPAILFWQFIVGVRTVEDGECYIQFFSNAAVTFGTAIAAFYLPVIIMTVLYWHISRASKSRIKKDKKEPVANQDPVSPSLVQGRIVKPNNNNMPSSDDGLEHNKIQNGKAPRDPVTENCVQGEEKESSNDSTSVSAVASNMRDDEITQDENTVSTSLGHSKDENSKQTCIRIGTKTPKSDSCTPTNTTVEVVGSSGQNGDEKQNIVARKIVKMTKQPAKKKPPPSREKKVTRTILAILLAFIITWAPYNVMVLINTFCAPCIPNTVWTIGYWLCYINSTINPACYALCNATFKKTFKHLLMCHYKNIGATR

[5] = Protein binding in human plasma; type: ADME, cell-free; details: read-out: PPB (converted)
[6] = Protein binding in rat plasma; type: ADME, cell-free; details: read-out: PPB (converted)
[7] = Passive permeability across MDCK cells; type: ADME, cell-based, Canis lupus familiaris; details: dog
MDR1 (P-gp, ABCB1) = MDR1 (P-gp, ABCB1) (Homo sapiens, UniProt P08183); assay: in vitro; details: not told
Description: Efflux ratio assessed as human MDR1-mediated directional transport ratio from basolateral to apical over apical to basolateral by cell based assay

MDR1a (P-gp, ABCB1) = MDR1a (P-gp, ABCB1) (Rattus norvegicus, UniProt P43245); assay: in vitro; details: not told
Description: Efflux ratio assessed as rat MDR1a-mediated directional transport ratio from basolateral to apical over apical to basolateral by cell based assay

[8] = Drug concentration in Sprague-Dawley rat brain at 10 mg/kg, po after 2 hrs; type: ADME, organism-based; parameters: dose 10 mg/kg, route oral; details: read-out: Drug uptake
[9] = Drug concentration in Sprague-Dawley rat CSF at 10 mg/kg, po after 2 hrs; type: ADME, organism-based, Cerebrospinal fluid; parameters: dose 10 mg/kg, route oral; details: read-out: Drug uptake
[10] = Plasma concentration in Sprague-Dawley rat at 10 mg/kg, po after 2 hrs; type: ADME, organism-based; parameters: dose 10 mg/kg, route oral
[11] = Ratio of drug level in brain to plasma of Sprague-Dawley rat at 10 mg/kg, po after 2 hrs; type: ADME, organism-based; parameters: dose 10 mg/kg, route oral; details: read-out: BPR

Chain of Muscarinic acetylcholine receptor M3 (Homo sapiens) (P20309 whole entry, looked up): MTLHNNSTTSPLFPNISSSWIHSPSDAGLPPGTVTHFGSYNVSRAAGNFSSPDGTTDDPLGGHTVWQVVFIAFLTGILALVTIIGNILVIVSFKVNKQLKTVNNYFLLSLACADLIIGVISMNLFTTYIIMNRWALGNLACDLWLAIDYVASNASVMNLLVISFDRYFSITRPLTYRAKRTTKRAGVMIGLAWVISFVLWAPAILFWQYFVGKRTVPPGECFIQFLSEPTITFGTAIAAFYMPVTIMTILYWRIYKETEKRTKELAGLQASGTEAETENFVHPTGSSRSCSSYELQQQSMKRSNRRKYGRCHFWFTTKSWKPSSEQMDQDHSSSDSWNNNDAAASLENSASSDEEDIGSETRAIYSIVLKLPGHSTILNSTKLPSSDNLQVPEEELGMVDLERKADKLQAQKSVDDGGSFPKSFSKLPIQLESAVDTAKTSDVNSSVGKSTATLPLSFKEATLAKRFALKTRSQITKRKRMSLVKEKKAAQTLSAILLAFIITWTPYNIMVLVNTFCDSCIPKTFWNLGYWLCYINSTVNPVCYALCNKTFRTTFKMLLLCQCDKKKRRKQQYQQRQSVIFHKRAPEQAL
Chain of MDR1 (P-gp, ABCB1) (P08183 whole entry): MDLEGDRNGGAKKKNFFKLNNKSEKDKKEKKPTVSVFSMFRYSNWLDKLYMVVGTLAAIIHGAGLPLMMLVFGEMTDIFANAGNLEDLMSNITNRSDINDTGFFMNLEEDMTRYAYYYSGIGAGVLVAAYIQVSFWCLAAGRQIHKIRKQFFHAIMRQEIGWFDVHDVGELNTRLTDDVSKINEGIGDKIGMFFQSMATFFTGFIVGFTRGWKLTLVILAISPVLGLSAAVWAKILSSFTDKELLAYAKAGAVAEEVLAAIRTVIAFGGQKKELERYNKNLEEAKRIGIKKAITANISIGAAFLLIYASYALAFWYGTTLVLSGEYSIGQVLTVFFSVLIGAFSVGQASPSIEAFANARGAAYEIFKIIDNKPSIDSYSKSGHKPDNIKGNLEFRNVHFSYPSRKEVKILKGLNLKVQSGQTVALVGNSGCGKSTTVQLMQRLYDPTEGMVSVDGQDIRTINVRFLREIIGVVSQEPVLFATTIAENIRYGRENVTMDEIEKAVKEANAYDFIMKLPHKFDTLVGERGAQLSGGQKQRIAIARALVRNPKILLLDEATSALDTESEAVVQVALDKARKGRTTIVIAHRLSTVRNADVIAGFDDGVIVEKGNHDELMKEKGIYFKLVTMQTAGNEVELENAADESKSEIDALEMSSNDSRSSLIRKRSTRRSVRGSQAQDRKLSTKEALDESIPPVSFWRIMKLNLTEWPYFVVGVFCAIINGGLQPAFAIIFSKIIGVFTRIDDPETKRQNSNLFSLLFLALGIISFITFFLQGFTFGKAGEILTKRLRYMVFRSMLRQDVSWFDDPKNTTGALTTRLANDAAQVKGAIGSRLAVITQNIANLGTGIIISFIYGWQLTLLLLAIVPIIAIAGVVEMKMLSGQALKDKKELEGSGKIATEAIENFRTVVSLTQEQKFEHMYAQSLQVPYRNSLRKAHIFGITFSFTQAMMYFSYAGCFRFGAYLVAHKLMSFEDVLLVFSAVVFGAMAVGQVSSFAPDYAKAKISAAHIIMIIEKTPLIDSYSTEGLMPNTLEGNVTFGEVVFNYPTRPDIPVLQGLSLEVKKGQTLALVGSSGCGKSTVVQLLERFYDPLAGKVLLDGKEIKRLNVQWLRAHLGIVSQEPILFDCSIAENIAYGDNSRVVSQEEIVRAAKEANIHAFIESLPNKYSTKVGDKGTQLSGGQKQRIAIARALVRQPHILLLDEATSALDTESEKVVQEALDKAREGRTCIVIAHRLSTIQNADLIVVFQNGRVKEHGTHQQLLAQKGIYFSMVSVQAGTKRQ
Chain of MDR1a (P-gp, ABCB1) (P43245 whole entry): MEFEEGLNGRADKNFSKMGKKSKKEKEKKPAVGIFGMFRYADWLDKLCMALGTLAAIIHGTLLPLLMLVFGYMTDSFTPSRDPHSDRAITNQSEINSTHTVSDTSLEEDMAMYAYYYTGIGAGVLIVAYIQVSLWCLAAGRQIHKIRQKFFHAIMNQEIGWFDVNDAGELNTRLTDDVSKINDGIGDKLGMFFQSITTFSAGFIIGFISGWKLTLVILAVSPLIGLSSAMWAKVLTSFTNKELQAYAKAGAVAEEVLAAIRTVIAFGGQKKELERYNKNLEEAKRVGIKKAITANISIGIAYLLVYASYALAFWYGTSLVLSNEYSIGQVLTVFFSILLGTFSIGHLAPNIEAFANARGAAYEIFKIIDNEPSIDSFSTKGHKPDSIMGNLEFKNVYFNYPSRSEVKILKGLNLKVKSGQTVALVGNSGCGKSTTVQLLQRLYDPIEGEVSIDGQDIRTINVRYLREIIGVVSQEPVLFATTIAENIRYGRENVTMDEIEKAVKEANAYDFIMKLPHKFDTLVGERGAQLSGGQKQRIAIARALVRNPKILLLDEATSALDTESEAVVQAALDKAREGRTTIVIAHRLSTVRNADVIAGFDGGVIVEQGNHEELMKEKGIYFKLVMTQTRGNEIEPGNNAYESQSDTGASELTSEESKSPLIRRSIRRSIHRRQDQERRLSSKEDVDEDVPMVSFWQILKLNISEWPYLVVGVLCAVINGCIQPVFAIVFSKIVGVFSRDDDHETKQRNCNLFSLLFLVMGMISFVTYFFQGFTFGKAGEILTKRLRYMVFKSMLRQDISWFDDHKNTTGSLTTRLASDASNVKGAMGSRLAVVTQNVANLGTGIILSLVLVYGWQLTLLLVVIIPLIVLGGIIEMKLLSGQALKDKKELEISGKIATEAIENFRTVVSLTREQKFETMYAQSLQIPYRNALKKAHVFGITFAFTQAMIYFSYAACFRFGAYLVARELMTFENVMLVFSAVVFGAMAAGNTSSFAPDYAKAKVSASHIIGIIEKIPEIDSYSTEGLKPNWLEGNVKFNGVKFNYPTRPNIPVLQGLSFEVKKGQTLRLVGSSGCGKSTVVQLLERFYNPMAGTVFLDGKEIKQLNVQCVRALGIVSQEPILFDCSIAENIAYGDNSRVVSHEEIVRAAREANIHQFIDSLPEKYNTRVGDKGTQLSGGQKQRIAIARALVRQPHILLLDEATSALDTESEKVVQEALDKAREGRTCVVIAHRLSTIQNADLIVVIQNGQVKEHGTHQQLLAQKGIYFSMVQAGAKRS

Row | SMILES | IP [1] [nM] | Activity [2] | Activity [3] | Activity [4] | fraction unbound [5] | fraction unbound [6] | Papp [7] [×10⁻⁶ cm/s] | efflux ratio (MDR1 (P-gp, ABCB1)) | efflux ratio (MDR1a (P-gp, ABCB1)) | concentration at 2 h [8] [nM] | concentration at 2 h [9] [nM] | concentration at 2 h [10] [nM] | Kp at 2 h [11]
1 | N#CC1(c2ccccn2)CCN(Cc2cc(C(=O)Nc3ccccn3)c(=O)n3ccccc23)CC1 | 640 | inactive | inactive | inactive | – | – | – | – | – | – | – | – | –
2 | Cc1cccc2c1N(C(=O)c1cc(CN3CCC(C#N)(c4ccccn4)CC3)c3ccccn3c1=O)CCC2 | 4400 | inactive | inactive | inactive | – | – | – | – | – | – | – | – | –
3 | Cc1ccc(N2CCN(Cc3cc(C(=O)N[C@H]4CCCC[C@@H]4O)c(=O)n4ccccc34)CC2)nc1 | 174 | inactive | inactive | inactive | 0.399 | 0.287 | 23 | – | – | – | – | – | –
4 | N#CC1(c2ccccn2)CCN(Cc2cc(C(=O)N3CCCC3)c(=O)n3ccccc23)CC1 | 23000 | inactive | inactive | inactive | – | – | – | – | – | – | – | – | –
5 | COc1ccc(Cn2cc(C(=O)Nc3ccccc3C)c(=O)c3ccccc32)cc1 | 23000 | inactive | inactive | inactive | – | – | – | – | – | – | – | – | –
6 | N#CC1(c2ccccn2)CCN(Cc2cc(C(=O)N3CCCc4ccccc43)c(=O)n3ccccc23)CC1 | 7800 | inactive | inactive | inactive | – | – | – | – | – | – | – | – | –
7 | Cc1ccccc1NC(=O)c1cc(CN2CCC(C#N)(c3ccccn3)CC2)c2ccccn2c1=O | 2400 | inactive | inactive | inactive | – | – | – | – | – | – | – | – | –
8 | COc1ccc(Cn2cc(C(=O)NC3CCCCC3)c(=O)c3ccccc32)cc1 | 14000 | inactive | inactive | inactive | – | – | – | – | – | – | – | – | –
9 | O=C(N[C@H]1CCCC[C@@H]1O)c1cc(CN2CCN(c3cc4scnc4cn3)CC2)c2ccccn2c1=O | 22 | inactive | inactive | inactive | 0.082 | 0.051 | 37 | – | – | 77 | 4 | 375 | 0.19
10 | N#CC1(c2ccccn2)CCN(Cc2cc(C(N)=O)c(=O)n3ccccc23)CC1 | 1900 | inactive | inactive | inactive | – | – | – | – | – | – | – | – | –
11 | CN(C(=O)c1cc(CN2CCC(C#N)(c3ccccn3)CC2)c2ccccn2c1=O)C1CCOCC1 | 4400 | inactive | inactive | inactive | – | – | – | – | – | – | – | – | –
12 | Cn1cc(NC(=O)c2cc(CN3CCC(C#N)(c4ccccn4)CC3)c3ccccn3c2=O)nn1 | 1300 | inactive | inactive | inactive | – | – | – | – | – | – | – | – | –

The remaining lines, values ahead:

Row | IP [1] [nM] | Activity [2] | Activity [3] | Activity [4] | fraction unbound [5] | fraction unbound [6] | Papp [7] [×10⁻⁶ cm/s] | efflux ratio (MDR1 (P-gp, ABCB1)) | efflux ratio (MDR1a (P-gp, ABCB1)) | concentration at 2 h [8] [nM] | concentration at 2 h [9] [nM] | concentration at 2 h [10] [nM] | Kp at 2 h [11] | SMILES
13 | 93 | inactive | inactive | inactive | – | – | – | – | – | – | – | – | – | C[C@@]1(O)CCCC[C@H]1NC(=O)c1cc(CN2CCC(C#N)(c3ccccn3)CC2)c2ccccn2c1=O
14 | 31 | inactive | inactive | inactive | 0.48 | 0.14 | 29 | – | – | – | – | – | – | N#CC1(c2ccccn2)CCN(Cc2cc(C(=O)N[C@H]3CCCC[C@@H]3O)c(=O)n3ccccc23)CC1
15 | 220 | inactive | inactive | inactive | – | – | – | – | – | – | – | – | – | N#CC1(c2ccccn2)CCN(Cc2cc(C(=O)N[C@@H]3CCCC[C@H]3O)c(=O)n3ccccc23)CC1
16 | 177 | inactive | inactive | inactive | – | – | – | – | – | – | – | – | – | CS[C@H]1CCCC[C@@H]1NC(=O)c1cc(CN2CCC(C#N)(c3ccccn3)CC2)c2ccccn2c1=O
17 | 381 | inactive | inactive | inactive | – | – | – | – | – | – | – | – | – | CO[C@H]1CCCC[C@@H]1NC(=O)c1cc(CN2CCC(C#N)(c3ccccn3)CC2)c2ccccn2c1=O
18 | 980 | inactive | inactive | inactive | – | – | – | – | – | – | – | – | – | N#CC1(c2ccccn2)CCN(Cc2cc(C(=O)NC3CCC3)c(=O)n3ccccc23)CC1
19 | > 20000 | inactive | inactive | inactive | – | – | 28 | 10 | 12 | – | – | – | – | C[C@@]1(NC(=O)c2cc(CN3CCC(C#N)(c4ccccn4)CC3)c3ccccn3c2=O)CCCC[C@H]1O
20 | 2600 | inactive | inactive | inactive | – | – | – | – | – | – | – | – | – | N#CC1(c2ccccn2)CCN(Cc2cc(C(=O)NC3CCCOC3)c(=O)n3ccccc23)CC1 (stereo not drawn)
21 | 4300 | inactive | inactive | inactive | – | – | – | – | – | – | – | – | – | CNC(=O)c1cc(CN2CCC(C#N)(c3ccccn3)CC2)c2ccccn2c1=O
22 | 205 | inactive | inactive | inactive | 0.105 | 0.04 | 29 | 1.7 | 3.4 | – | – | – | – | N#CC1(c2ccccn2)CCN(Cc2cc(C(=O)NC3CCCCC3(F)F)c(=O)n3ccccc23)CC1 (stereo not drawn)
23 | 253 | inactive | inactive | inactive | 0.066 | 0.044 | 28 | 1.6 | 2 | – | – | – | – | N#CC1(c2ccccn2)CCN(Cc2cc(C(=O)NC3CCCCC3)c(=O)n3ccccc23)CC1
24 | 304 | inactive | inactive | inactive | – | – | – | – | – | – | – | – | – | N#CC1(c2ccccn2)CCN(Cc2cc(C(=O)NC3CCCCCC3)c(=O)n3ccccc23)CC1
25 | 2200 | inactive | inactive | inactive | – | – | – | – | – | – | – | – | – | N#CC1(c2ccccn2)CCN(Cc2cc(C(=O)NC3CC3)c(=O)n3ccccc23)CC1
26 | 344 | inactive | inactive | inactive | – | – | – | – | – | – | – | – | – | N#CC1(c2ccccn2)CCN(Cc2cc(C(=O)NC3CCSCC3)c(=O)n3ccccc23)CC1
27 | 190 | inactive | inactive | inactive | – | – | – | – | – | – | – | – | – | C[C@H]1CCCC[C@@H]1NC(=O)c1cc(CN2CCC(C#N)(c3ccccn3)CC2)c2ccccn2c1=O
28 | 780 | inactive | inactive | inactive | – | – | – | – | – | – | – | – | – | N#CC1(c2ccccn2)CCN(Cc2cc(C(=O)NC3CCCC3)c(=O)n3ccccc23)CC1
